Experimental data as given in patent US20230414775A1, “TUBULYSINS AND PROTEIN-TUBULYSIN CONJUGATES” (priority 2021, published 2023).
pIC50: −log10 of the molar value. Where two headings read alike, the source gives them in different places.

How the values were obtained:
[1] = system: SK-BR-3 cells; assay: SK-BR-3 anti-proliferation assay for payloads (CellTiter-Glo); assay type: cell-based; settings: Homo sapiens, free payload, 120-144 h, read-out: SKBR3
Procedure: The cell line used in the anti-proliferation assays was SK-BR-3, a human breast, adenocarcinoma (pleural effusion) cell line. The cells were grown in McCoy's 5a Medium+10% FBS. To run the assay for payloads, the cells (40 μL, 700 cells) were added to each well in a 384-well plate and incubated for 24 hours at 37° C. with 5% CO2. Then the cells were treated with test compounds at various concentrations using HPD300, and then normalize the DMSO to 0.5%. The control wells contain cells and the medium but lack the test compounds. The plates were incubated for 120 h at 37° C. with 5% CO2. To run the assay for ADCs and some key payloads, the cells (80 μL, 1000 cells) were added to each well in a 96-well plate and incubated for twenty-four hours at 37° C. with 5% CO2. Next, the ADCs or payloads were diluted with Opti-Mem with 0.1% BSA. The cells were treated with test compounds or ADCs (20 μL) at various concentrations in appropriate cell culture medium (total volume, 0.1 mL). The final concentration of DMSO was adjusted to 0.2% and the Opti-Mem with 0.1% BSA was adjusted to 5%. The control wells contained cells and the medium but lacked the test compounds. The plates were incubated for 144 h at 37° C. with 5% CO2. CTG reagent was then added to the wells (25 μL/384-well or 100 μL/96-well). After the plates were shaken for 10 min and then incubated for 10 min at room temperature, paste the clear bottom with white back seal and record luminescence with Envision. The inhibition % was calculated according to the following equation: inhibition %=[1-(assay-blank)/(control-blank)]×100.

[2] = system: HCT15 cells; assay: HCT15 anti-proliferation / cell killing assay (CellTiter-Glo), with or without verapamil; assay type: cell-based, human; settings: for pIC50: Homo sapiens
Procedure: The cell line used in the anti-proliferation assays was HCT15, a human colon, colorectal carcinoma cell line. The HCT15 cells were grown in RPMI medium 1640+10% FBS. To run the assay, the cells (40 μL, 400 cells) were added to each well in a 384-well plate and incubated for twenty-four hours at 37° C. with 5% CO2. One hour before adding compounds, freshly dilute Verapamil to 0.2 mg/ml in ddH2O. Add 1 μL/well diluted Verapamil to Verapamil treatment wells and 1 μL/well ddH2O to the non-Verapamil treatment wells. Return plates to the incubator at 37° C. with 5% CO2. Then the cells were treated with test compounds at various concentrations using HPD300, and then normalize the DMSO to 0.5%. The control wells contained cells and the medium but lack the test compounds. The plates were incubated for 120 hours at 37° C. with 5% CO2. CTG reagent was then added to the wells (25 μL). After the plates were shaken for 10 min and then incubated for 10 min at room temperature, paste the clear bottom with white back seal and record luminescence with Envision. The inhibition % was calculated according to the following equation: inhibition %=[1−(assay-blank)/(control-blank)]×100.

[3] = Plasma stability test of payloads (LC-MS/MS, half-life); assay type: in vitro ADME; settings: human plasma, 37° C., time points 0-24 h, read-out: Human plasma stability T1/2 (converted)
Procedure: Stock solutions were prepared at 10 mM in DMSO for the test compound. Aliquots of the stock solutions were diluted to 0.02 mM in 0.05 M sodium phosphate buffer containing 0.5% BSA as the dosing solution. Then 10 μL of the dosing solutions were dosed into 90 μL of pre-warmed plasma (37° C.) in singlet (n=1) in 96-well assay plates to reach a final test concentration of 2 μM. The plates were kept in a 37° C. water bath for the duration of the experiment. At each time point (0, 0.25, 1, 8, 24 h), 400 μL of acetonitrile (containing internal standard) was added into corresponding wells of the assay plates. After the final time point was quenched, the assay plates were shaken on a vibrator (IKA, MTS 2/4) for 10 min (600 rpm/min) and then centrifuged at 5594 g for 15 min (Thermo Multifuge×3R). Aliquots of the supernatant were taken and analyzed by LC-MS/MS. The peak area response ratio to internal standard (PARR) of the compounds at 0.25, 1, 8, and 24 h was compared to the PARR at time zero to determine the percent of test compound remaining at each time point. Half-lives (ti/2) were calculated using Excel software, fitting to a single-phase exponential decay equation.

[4] = HCT15 cells, no verapamil, 120 h (5 days), read-out: HCT-15
[5] = HCT-15, HCT15 cells pre-treated with verapamil, 120 h, read-out: HCT-15 with verapamil

Structure (SMILES) | pIC50 [1] | pIC50 [2, 4] | pIC50 [2, 5] | half-life at 2 μM [3] | HCT-15 with verapamil (nM) ([2]; HCT15 cells pre-treated with verapamil, 120 h)
CCCCCCN(C(=O)[C@@H](NC(=O)[C@H]1CCCCN1C)[C@@H](C)CC)[C@H](C[C@@H](OC(C)=O)c1nc(C(=O)N[C@@H](Cc2ccc(NCC(=O)O)cc2)CC(C)(C)C(=O)O)cs1)C(C)C (racemic) [PA16, Rac-(R)-4-(2-((1S,3S)-1-acetoxy-3-((2R,3R)—N-hexyl-3-methyl-2-((S)-1-methylpiperidine-2-carboxamido)pentanamido)-4-methylpentyl)thiazole-4-carboxamido)-acid] | 10.72 | 10.21 | 10.48 | 327 h | –
CCCCCCN(C(=O)[C@@H](NC(=O)[C@H]1CCCCN1C)[C@@H](C)CC)[C@H](C[C@@H](OC(C)=O)c1nc(C(=O)N[C@@H](Cc2ccc(NCCO)cc2)CC(C)(C)C(=O)O)cs1)C(C)C (racemic) [PA14, Rac-(R)-4-(2-((1S,3S)-1-acetoxy-3-((2R,3R)—N-hexyl-3-methyl-2-((S)-1-methylpiperidine-2-carboxamido)pentanamido)-4-methylpentyl)thiazole-4-carboxamido)-acid] | 9.80 | 9.21 | 9.83 | 71 h | –
CCCCCCN(C(=O)[C@@H](NC(=O)[C@H]1CCCCN1CCO)[C@@H](C)CC)[C@H](C[C@@H](OC(C)=O)c1nc(C(=O)N[C@@H](Cc2ccc(N)cc2)CC(C)(C)C(=O)O)cs1)C(C)C [PA7, (4S)-4-({2-[(1R,3R)-1-(acetyloxy)-3-[(2S,3S)—N-hexyl-2-{[(2R)-1-(2-hydroxyethyl)piperidin-2-yl]formamido}-3-methylpentanamido]-4-methylpentyl]-1,3-thiazol-4-yl}formamido)-5-(4-aminophenyl)-2,2-dimethylpentanoic acid] | 10.42 | 9.91 | 10.43 | 65.9 h | –
CCCCCCN(C(=O)[C@@H](NC(=O)[C@H]1CCCCN1C)[C@@H](C)CC)[C@H](C[C@@H](OCCCO)c1nc(C(=O)N[C@@H](Cc2ccc(N)c(F)c2)CC(C)(C)C(=O)O)cs1)C(C)C (mixture of isomers) [PA22, Rac-(R)-5-(4-amino-3-fluorophenyl)-4-(2-((1S,3S)-3-((2R,3R)—N-hexyl-3-methyl-2-((S)-1-methylpiperidine-2-carboxamido)pentanamido)-1-(3-hydroxypropoxy)-4-methylpentyl)thiazole-4-carboxamido)-2,2-dimethylpentanoic acid] | 10.36 | 9.27 | – | 63.5 h | Not reach
CCCCCCN(C(=O)[C@@H](NC(=O)[C@@]1(C)CCCN1)[C@@H](C)CC)[C@H](C[C@@H](OC(C)=O)c1nc(C(=O)N[C@@H](Cc2ccc(N)c(F)c2)CC(C)(C)C(=O)O)cs1)C(C)C [Compound P15, reference compound] | 10.17 | 8.78 | 9.72 | 15.1 h | –
CCCCCCN(C(=O)[C@@H](NC(=O)[C@H]1CCCCN1C)[C@@H](C)CC)[C@H](C[C@@H](OCC)c1nc(C(=O)N[C@@H](Cc2ccc(NCCO)cc2)CC(C)(C)C(=O)O)cs1)C(C)C (racemic) [PA15, Rac-(R)-4-(2-((1S,3S)-1-ethoxy-3-((2R,3R)—N-hexyl-3-methyl-2-((S)-1-methylpiperidine-2-carboxamido)pentanamido)-4-methylpentyl)thiazole-4-carboxamido)-acid] | 9.50 | 8.77 | 9.41 | 103 h | –
CCCCCCN(C(=O)[C@@H](NC(=O)[C@H]1CCCCN1CCO)[C@@H](C)CC)[C@H](C[C@@H](OCC)c1nc(C(=O)N[C@@H](Cc2ccc(N)cc2)CC(C)(C)C(=O)O)cs1)C(C)C [PA13, (S)-5-(4-aminophenyl)-4-(2-((1R,3R)-1-ethoxy-3-((2S,3S)—N-hexyl-2-((R)-1-(2-hydroxyethyl)piperidine-2-carboxamido)-3-methylpentanamido)-4-methylpentyl)thiazole-4-carboxamido)-2,2-dimethylpentanoic acid] | 9.54 | 8.88 | 9.55 | 313 h | –
CCCCCCN(C(=O)[C@@H](NC(=O)[C@H]1CCCCN1C)[C@@H](C)CC)[C@H](C[C@@H](OC(=O)NCCO)c1nc(C(=O)N[C@@H](Cc2ccc(N)c(F)c2)CC(C)(C)C(=O)O)cs1)C(C)C (mixture of isomers) [PA24, (S)-5-(4-amino-3-fluorophenyl)-4-(2-((3RS,6SR,8SR)-3-((RS)-sec-butyl)-5-hexyl-13-hydroxy-6-isopropyl-1-((R)-1-methylpiperidin-2-yl)-1,4,10-trioxo-9-oxa-2,5,11-triazatridecan-8-yl)thiazole-4-carboxamido)-2,2-dimethylpentanoic acid] | 9.87 | 9.03 | 9.59 | 43.4 h | –
CCCCCCN(C(=O)[C@@H](NC(=O)[C@H]1CCCCN1)[C@@H](C)CC)[C@H](C[C@@H](OC(C)=O)c1nc(C(=O)N[C@@H](Cc2ccc(NCC(=O)O)cc2)CC(C)(C)C(=O)O)cs1)C(C)C (mixture of isomers) [PA17, Rac-(R)-4-(2-((1S,3S)-1-acetoxy-3-((2R,3R)—N-hexyl-3-methyl-2-((S)-piperidine-2-carboxamido)pentanamido)-4-methylpentyl)thiazole-4-carboxamido)-5-(4-((carboxymethyl)amino)phenyl)-2,2-dimethylpentanoic acid] | 9.88 | 8.86 | 10.05 | – | –
CCCCCCN(C(=O)[C@@H](NC(=O)[C@@]1(C)CCCN1CCN)[C@@H](C)CC)[C@H](C[C@@H](OC(C)=O)c1nc(C(=O)N[C@@H](Cc2ccc(O)cc2)CC(C)(C)C(=O)O)cs1)C(C)C (mixture of isomers) [PA5, (S)-4-(2-((1RS,3RS)-1-acetoxy-3-((2SR,3SR)-2-((R)-1-(2-aminoethyl)-2-methylpyrrolidine-2-carboxamido)-N-hexyl-3-methylpentanamido)-4-methylpentyl)thiazole-4-carboxamido)-5-(4-hydroxyphenyl)-2,2-dimethylpentanoic acid] | 7.74 | < 7.00 | 7.80 | – | –
